Results taken from patent US11970479B2, “3-(1H-pyrazol-4-yl)pyridine allosteric modulators of the M4 muscarinic acetylcholine receptor” (Merck Sharp & Dohme LLC, priority 2018, dated 2024).

What follows are compounds tested against T1, human M4 muscarinic acetylcholine receptor (Homo sapiens, UniProt P08173) (assay: human FLIPR-based M4 PAM assay (CHO-K1 cells with human M4 receptor and Gαqi5, calcium dye fluorescence, EC20 acetylcholine)). Conditions: inflection point (IP) of the dose response curve, human M4 receptor/Gαqi5, acetylcholine at 20% of maximum response, read-out: M4PAM Hu IP.
T1 construct: expressed in transfected cells
T1 sequence (P08173 1-479): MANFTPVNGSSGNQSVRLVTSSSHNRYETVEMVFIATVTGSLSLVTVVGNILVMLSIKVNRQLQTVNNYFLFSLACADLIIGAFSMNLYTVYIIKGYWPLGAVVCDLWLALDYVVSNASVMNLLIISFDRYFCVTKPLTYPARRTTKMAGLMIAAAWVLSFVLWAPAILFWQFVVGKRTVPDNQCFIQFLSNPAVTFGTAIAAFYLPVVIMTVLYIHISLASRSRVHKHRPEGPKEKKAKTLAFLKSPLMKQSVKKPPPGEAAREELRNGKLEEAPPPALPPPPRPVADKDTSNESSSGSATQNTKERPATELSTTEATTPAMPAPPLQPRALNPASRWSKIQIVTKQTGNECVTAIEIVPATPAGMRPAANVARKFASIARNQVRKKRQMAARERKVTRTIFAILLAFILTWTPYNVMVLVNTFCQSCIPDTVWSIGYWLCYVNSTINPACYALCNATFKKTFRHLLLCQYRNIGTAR
Format: cell-based
Procedure: (§1) In a typical experiment the M4 muscarinic acetylcholine receptor modulating activity of the compounds of the present invention was determined in accordance with the following experimental method. CHO-K1 cells stably transfected with human M4 receptor and chimeric G-protein Gαqi5 (Coward P, et al., Analytical Biochemistry, 270:242-248 (1999)) are thawed from liquid N2 storage, resuspended in growth medium, plated in black, clear bottom 384 well plates, and incubated 16-20 hours at 37° C., 5% CO2. On the day of assay, growth medium is removed, the cells are washed 2 times with wash buffer, and cells are incubated in dye loading buffer at 37° C., 5% CO2 for ˜1 hour. Following dye loading the cell plates are placed in a FLIPR Tetra instrument and while monitoring dye fluorescence (excitation […]), 10 uL of test substance at increasing concentrations is added, and fluorescence values are recorded for 4 min. Next, 10 uL of acetylcholine is added (final concentration calculated so as to achieve 20% of the maximum acetycholine response), and the fluorescence reading is continued for 3.5 min. In some cases, a third addition of acetylcholine (final concentration calculated to achieve 70% of the maximal acetylcholine response) is performed. The resulting dose response curves are fit to a 4 parameter logistic equation and the final result is determined as the inflection point (IP) of the curve
as §1, with “CHO-K1” for “In a typical experiment the M4 muscarinic acetylcholine receptor modulating activity of the compounds of the present invention was determined in accordance with the following experimental method. CHO-K1”, “Gαqi5” for “Gαqi5 (Coward P, et al., Analytical Biochemistry, 270:242-248 (1999))”, “performed.” for “performed. The resulting dose response curves are fit to a 4 parameter logistic equation and the final result is determined as the inflection point (IP) of the curve”

Structure (SMILES) | EC50 [nM]
Cc1ccnc(-c2ccc3cccnc3c2)c1-c1cnn(CCC(C)C)c1 [Example 50, 7-{4-methyl-3-[1-(3-methylbutyl)-1H-pyrazol-4-yl]pyridin-2-yl}quinoline] | 188
COc1cc2ccc(-c3nc(C)ccc3-c3cnn(CC4CC(F)(F)C4)c3)cc2nn1 [Example 78, 7-(3-{1-[(3,3-difluorocyclobutyl)methyl]-1H-pyrazol-4-yl}-6-methylpyridin-2-yl)-3-methoxycinnoline] | 190
COc1cc2ccc(-c3nc(C#N)ccc3-c3cnn(CC4CC4(C)C)c3)cc2nn1 (stereo not drawn) [Example 102, 5-{1-[(2,2-dimethylcyclopropyl)methyl]-1H-pyrazol-4-yl}-6-(3-methoxycinnolin-7-yl)pyridine-2-carbonitrile] | 91
COc1cc2ccc(-c3ncc(Cl)cc3-c3cnn(CCC(C)C)c3)cc2nn1 [Example 53, 7-{5-chloro-3-[1-(3-methylbutyl)-1H-pyrazol-4-yl]pyridin-2-yl}-3-methoxycinnoline] | 131
COc1cc2ccc(-c3nc(C)ccc3-c3cnn(CC4(C)CCOC4)c3)cc2nn1 (single isomer, unassigned) [Example 98, 3-methoxy-7-(6-methyl-3-{1-[(3-methyltetrahydrofuran-3-yl)methyl]-1H-pyrazol-4-yl}pyridin-2-yl)cinnoline] | 57
Cc1ccc(-c2cnn(Cc3ccccc3)c2)c(-c2ccc3cccnc3c2)n1 [Example 4, 7-[3-(1-benzyl-1H-pyrazol-4-yl)-6-methylpyridin-2-yl]quinoline] | 91
COc1cc2ccc(-c3nc(C)ccc3-c3cnn(CC4(C)CCOC4)c3)cc2nn1 (single isomer, unassigned) [Example 99, 3-methoxy-7-(6-methyl-3-{1-[(3-methyltetrahydrofuran-3-yl)methyl]-1H-pyrazol-4-yl}pyridin-2-yl)cinnoline] | 169
COc1cc2ccc(-c3nc(C)ccc3-c3cnn(CCC4CC(F)(F)C4)c3)cc2nn1 [Example 79, 7-(3-{1-[2-(3,3-difluorocyclobutyl)ethyl]-1H-pyrazol-4-yl}-6-methylpyridin-2-yl)-3-methoxycinnoline] | 166
CC(C)(C)Cn1cc(-c2ccc(C#N)nc2-c2ccc3cccnc3c2)cn1 [Example 37, 5-[1-(2,2-dimethylpropyl)-1H-pyrazol-4-yl]-6-quinolin-7-ylpyridine-2-carbonitrile] | 25
CC1(Cn2cc(-c3ccc(C#N)nc3-c3ccc4cccnc4c3)cn2)CC1 [Example 97, 5-{1-[(1-methylcyclopropyl)methyl]-1H-pyrazol-4-yl}-6-quinolin-7-ylpyridine-2-carbonitrile] | 87
C=Cc1ccc(-c2cnn(CCC(C)C)c2)c(-c2ccc3cccnc3c2)n1 [Example 72, 7-{6-ethenyl-3-[1-(3-methylbutyl)-1H-pyrazol-4-yl]pyridin-2-yl}quinoline] | 191
COc1cc2ccc(-c3nc(C)ccc3-c3cnn(CC4(F)CCCCC4)c3)cc2nn1 [Example 86, 7-(3-{1-[(1-fluorocyclohexyl)methyl]-1H-pyrazol-4-yl}-6-methylpyridin-2-yl)-3-methoxycinnoline] | 69
COc1cc2ccc(-c3nc(C)ccc3-c3cnn(CC4CC4(C)C)c3)cc2nn1 (stereo not drawn) [Example 100, 7-(3-{1-[(2,2-dimethylcyclopropyl)methyl]-1H-pyrazol-4-yl}-6-methylpyridin-2-yl)-3-methoxycinnoline] | 81
Cc1ccc(-c2cnn(Cc3ccccc3F)c2)c(-c2ccc3cccnc3c2)n1 [Example 20, 7-{3-[1-(2-fluorobenzyl)-1H-pyrazol-4-yl]-6-methylpyridin-2-yl}quinoline] | 92
CC(C)CCn1cc(-c2cc(Cl)cnc2-c2ccc3cccnc3c2)cn1 [Example 52, 7-{5-chloro-3-[1-(3-methylbutyl)-1H-pyrazol-4-yl]pyridin-2-yl}quinoline] | 145
N#Cc1ccc(-c2cnn(CC3(F)CC3)c2)c(-c2ccc3cccnc3c2)n1 [Example 111, 5-{1-[(1-fluorocyclopropyl)methyl]-1H-pyrazol-4-yl}-6-quinolin-7-ylpyridine-2-carbonitrile] | 110
Cc1ccc(-c2cnn(CCC(C)C(F)(F)F)c2)c(-c2ccc3cccnc3c2)n1 (stereo not drawn) [Example 11, 7-{6-methyl-3-[1-(4,4,4-trifluoro-3-methylbutyl)-1H-pyrazol-4-yl]pyridin-2-yl}quinoline] | 89
COc1ccc(-c2cnn(CCC(C)C)c2)c(-c2ccc3cccnc3c2)n1 [Example 48, 7-{6-methoxy-3-[1-(3-methylbutyl)-1H-pyrazol-4-yl]pyridine-2-yl}quinoline] | 220
COc1cc2ccc(-c3nc(C)ccc3-c3cnn(CC4(C)CCCO4)c3)cc2nn1 (stereo not drawn) [Example 23, 3-methoxy-7-(6-methyl-3-{1-[(2-methyltetrahydrofuran-2-yl)methyl]-1H-pyrazol-4-yl}pyridin-2-yl)cinnoline] | 111
N#Cc1ccc(-c2cnn(CC3(C(F)F)CC3)c2)c(-c2ccc3cccnc3c2)n1 [Example 27, 5-(1-{[1-(difluoromethyl)cyclopropyl]methyl}-1H-pyrazol-4-yl)-6-quinolin-7-ylpyridine-2-carbonitrile] | 33
CC(C)(C)Cn1cc(-c2ccc(C#N)nc2-c2ccc3cc(F)cnc3c2)cn1 [Example 41, 5-[1-(2,2-dimethylpropyl)-1H-pyrazol-4-yl]-6-(3-fluoroquinolin-7-yl)pyridine-2-carbonitrile] | 39
COc1cc2ccc(-c3nc(C)ccc3-c3cnn(CC45CCC(CC4)CC5)c3)cc2nn1 [Example 15, 7-{3-[1-(bicyclo[2.2.2]oct-1-ylmethyl)-1H-pyrazol-4-yl]-6-methylpyridin-2-yl}-3-methoxycinnoline] | 14
COc1cc2ccc(-c3nc(C)ccc3-c3cnn(CC45CC6CC(CC(C6)C4)C5)c3)cc2nn1 [Example 13, 7-(3-(1-(((3r,5r,7r)-adamantan-1-yl)methyl)-1H-pyrazol-4-yl)-6-methylpyridin-2-yl)-3-methoxycinnoline] | 37
COc1cc2ccc(-c3nc(C)c(C#N)cc3-c3cnn(CC4(C(F)(F)F)CC4)c3)cc2nn1 [Example 57, 6-(3-methoxycinnolin-7-yl)-2-methyl-5-(1-{[1-(trifluoromethyl)cyclopropyl]methyl}-1H-pyrazol-4-yl)pyridine-3-carbonitrile] | 243
Cc1nc(-c2ccc3cccnc3c2)c(-c2cnn(CC3(C(F)(F)F)CC3)c2)cc1C#N [Example 56, 2-methyl-6-quinolin-7-yl-5-(1-{[1-(trifluoromethyl)cyclopropyl]methyl}-1H-pyrazol-4-yl)pyridine-3-carbonitrile] | 275
COc1cc2ccc(-c3nc(C(F)F)ccc3-c3cnn(CC(C)(C)F)c3)cc2nn1 [Example 115, 7-{6-(difluoromethyl)-3-[1-(2-fluoro-2-methylpropyl)-1H-pyrazol-4-yl]pyridin-2-yl}-3-methoxycinnoline] | 190
CC(C)CCn1cc(-c2cccnc2-c2ccc3ccc(Cl)nc3c2)cn1 [Example 62, 2-chloro-7-{3-[1-(3-methylbutyl)-1H-pyrazol-4-yl]pyridin-2-yl}quinoline] | 84
CC(C)CCn1cc(-c2ccc(C(F)(F)F)nc2-c2ccc3cccnc3c2)cn1 [Example 49, 7-{3-[1-(3-methylbutyl)-1H-pyrazol-4-yl]-6-(trifluoromethyl)pyridin-2-yl}quinoline] | 84
COc1cc2ccc(-c3nc(C)ccc3-c3cnn(CC(C)(C)F)c3)cc2nn1 [Example 114, 7-{3-[1-(2-fluoro-2-methylpropyl)-1H-pyrazol-4-yl]-6-methylpyridin-2-yl}-3-methoxycinnoline] | 191
N#Cc1ccc(-c2cnn(CC3CC34CC4)c2)c(-c2ccc3cccnc3c2)n1 (stereo not drawn) [Example 29, 6-quinolin-7-yl-5-[1-(spiro [2.2]pent-1-ylmethyl)-1H-pyrazol-4-yl]pyridine-2-carbonitrile] | 72
